# Results from PMC9146163, “Novel Au Carbene Complexes as Promising Multi-Target Agents in Breast Cancer Treatment” (Pharmaceuticals, 2022).
# Entries after “also recorded” stand apart in the source; their conditions may differ. Read-outs that look alike come from different tables or passages of the source.
# Experiments:
# [1] = biological target: T1, Labeled Rabbit Muscle Actin (Oryctolagus cuniculus, UniProt P68135); assay: In vitro actin depolymerization assay; assay type: biochemical; details: 5 µM
# T1 construct: purchased Abcam (Actin Polymerization/Depolymerization Assay Kit)
# Protocol: The ability of the tested compounds to interfere with the actin polymerization and depolymerization reaction was measured using an Actin Polymerization/Depolymerization Assay Kit purchased from Abcam, following the manufacturer’s instructions. […] For the polymerization assay, reconstituted actin was mixed with supplemented Buffer G and samples in a white 96-well plate and then the polymerization reaction was induced with the addition of the Buffer P supplemented with 10 mM ATP. The solution was mixed and the data acquisition started. For the Actin Depolymerization Assay, supplemented Buffers P and G were mixed and incubated in a white 96-well plate at room temperature for one hour to polymerize the actin, protected from light. Then samples were added and the data acquisition started. Latrunculin A and Cytochalasin B were used as control molecules at a concentration of 5 μM. For both the assays, the assembly of actin filaments was determined by measuring the fluorescence (Ex/Em: 365/410 nm) in kinetic mode for 1 h at room temperature using a microplate reader.
# [2] = biological target: T2, human topoisomerase I (hTopo I) (Homo sapiens, UniProt P11387); assay: hTopo I relaxation assay; assay type: biochemical; details: 1 μM; supercoiled pHOT1, agarose gel
# T2 construct: purchased TopoGEN, Port Orange, FL, USA
# T2 sequence (P11387 whole entry): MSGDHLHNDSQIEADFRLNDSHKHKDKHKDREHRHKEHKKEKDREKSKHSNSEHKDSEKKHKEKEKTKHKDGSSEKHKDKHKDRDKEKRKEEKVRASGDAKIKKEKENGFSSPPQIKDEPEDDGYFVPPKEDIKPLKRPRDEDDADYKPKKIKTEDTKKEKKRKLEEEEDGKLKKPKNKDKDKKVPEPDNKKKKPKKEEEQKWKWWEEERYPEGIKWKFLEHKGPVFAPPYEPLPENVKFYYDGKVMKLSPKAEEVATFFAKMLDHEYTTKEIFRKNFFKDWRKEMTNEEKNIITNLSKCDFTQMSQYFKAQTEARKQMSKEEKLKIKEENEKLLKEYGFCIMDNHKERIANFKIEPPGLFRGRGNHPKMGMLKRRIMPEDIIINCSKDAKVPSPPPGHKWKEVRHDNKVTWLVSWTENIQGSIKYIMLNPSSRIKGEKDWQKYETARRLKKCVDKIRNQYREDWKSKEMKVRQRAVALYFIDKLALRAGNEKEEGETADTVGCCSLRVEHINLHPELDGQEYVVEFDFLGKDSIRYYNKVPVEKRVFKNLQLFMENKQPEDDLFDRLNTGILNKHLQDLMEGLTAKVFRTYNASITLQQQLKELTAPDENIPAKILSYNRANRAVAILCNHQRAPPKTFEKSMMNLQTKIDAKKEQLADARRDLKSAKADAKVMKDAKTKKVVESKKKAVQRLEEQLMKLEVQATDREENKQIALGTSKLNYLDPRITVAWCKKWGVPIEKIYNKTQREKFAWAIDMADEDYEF
# [3] = biological target: T3, human topoisomerase II (hTopo II) (Homo sapiens, UniProt P11388); assay: hTopo II decatenation assay; assay type: biochemical; details: 1 μM; kDNA, agarose gel
# T3 construct: purchased TopoGEN, Port Orange, FL
# T3 sequence (P11388 whole entry): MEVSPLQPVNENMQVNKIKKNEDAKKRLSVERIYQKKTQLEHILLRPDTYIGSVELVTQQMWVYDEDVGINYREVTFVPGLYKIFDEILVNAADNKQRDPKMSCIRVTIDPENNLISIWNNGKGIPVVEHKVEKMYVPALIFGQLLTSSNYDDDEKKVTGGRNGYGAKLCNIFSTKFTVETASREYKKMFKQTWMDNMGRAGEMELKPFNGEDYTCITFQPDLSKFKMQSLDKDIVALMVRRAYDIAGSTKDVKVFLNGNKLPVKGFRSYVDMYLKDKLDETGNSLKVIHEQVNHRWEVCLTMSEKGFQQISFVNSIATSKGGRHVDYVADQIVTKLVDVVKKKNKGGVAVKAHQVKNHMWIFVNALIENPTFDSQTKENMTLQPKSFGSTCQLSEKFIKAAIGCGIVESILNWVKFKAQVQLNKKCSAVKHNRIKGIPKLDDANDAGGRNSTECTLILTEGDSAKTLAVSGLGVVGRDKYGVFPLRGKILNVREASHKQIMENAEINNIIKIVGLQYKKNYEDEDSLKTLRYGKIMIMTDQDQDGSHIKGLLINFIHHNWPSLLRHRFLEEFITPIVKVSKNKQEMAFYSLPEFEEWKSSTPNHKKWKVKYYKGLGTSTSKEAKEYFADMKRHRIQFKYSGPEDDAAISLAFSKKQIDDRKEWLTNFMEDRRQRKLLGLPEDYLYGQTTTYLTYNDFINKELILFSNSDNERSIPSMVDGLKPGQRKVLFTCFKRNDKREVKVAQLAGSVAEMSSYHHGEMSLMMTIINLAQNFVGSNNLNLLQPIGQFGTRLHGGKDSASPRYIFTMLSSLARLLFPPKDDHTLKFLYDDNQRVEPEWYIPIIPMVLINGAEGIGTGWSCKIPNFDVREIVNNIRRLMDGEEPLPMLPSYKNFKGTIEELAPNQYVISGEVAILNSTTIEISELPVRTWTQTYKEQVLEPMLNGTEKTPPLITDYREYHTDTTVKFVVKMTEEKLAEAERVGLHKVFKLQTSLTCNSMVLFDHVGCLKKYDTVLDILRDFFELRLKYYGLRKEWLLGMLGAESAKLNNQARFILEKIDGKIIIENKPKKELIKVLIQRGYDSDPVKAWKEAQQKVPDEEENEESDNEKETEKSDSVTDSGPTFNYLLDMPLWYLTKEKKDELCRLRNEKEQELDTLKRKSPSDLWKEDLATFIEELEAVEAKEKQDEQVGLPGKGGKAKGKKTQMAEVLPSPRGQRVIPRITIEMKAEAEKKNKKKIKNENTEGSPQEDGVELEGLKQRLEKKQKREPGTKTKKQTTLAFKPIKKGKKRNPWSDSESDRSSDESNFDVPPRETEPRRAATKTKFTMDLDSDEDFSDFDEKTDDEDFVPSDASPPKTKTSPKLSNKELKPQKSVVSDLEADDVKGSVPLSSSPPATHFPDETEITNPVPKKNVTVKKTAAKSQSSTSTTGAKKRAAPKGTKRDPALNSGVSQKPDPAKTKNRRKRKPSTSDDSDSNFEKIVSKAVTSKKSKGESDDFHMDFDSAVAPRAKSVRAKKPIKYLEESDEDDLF
# MCF-10A cells [4] = assay: MTT assay, normal MCF-10A; assay type: cell-based, human; details: MTT; for IC50: 72 h, normal cells, mean ± SD, read-out: IC50 MCF-10A
# Protocol: (§1) The five employed cell lines were purchased from American Type Culture Collection (ATCC, Manassas, VA, USA) and maintained as already reported. […] SkBr3 cells were maintained in DMEM high glucose, supplemented with 10% FBS and 100 μg/mL penicillin/streptomycin.
# […] Results are represented as percent (%) of basal and the IC50 values were calculated using GraphPad Prism 9 (GraphPad Software, La Jolla, CA, USA).
# SkBr3 cells = assay: MTT assay, SkBr3; assay type: cell-based, human; details: MTT, 72 h; mean ± SD; read-out: IC50 SkBr3
# Protocol: (§2) The five employed cell lines were purchased from American Type Culture Collection (ATCC, Manassas, VA, USA) and maintained as already reported. MCF-7, MDA-MB-231, MCF-10A and Hek-293 were cultured, as indicated by Iacopetta et al.. SkBr3 cells were maintained in DMEM high glucose, supplemented with 10% FBS and 100 μg/mL penicillin/streptomycin.
# (§3) MTT assays [Sigma Aldrich (St.Louis, MO, USA)] were used in order to determine the in vitro anticancer activities of all the target compounds, as already reported.The compounds were tested at different concentrations (0.1-1-10-20-40 µM) for 72 h. Results are represented as percent (%) of basal and the IC50 values were calculated using GraphPad Prism 9 (GraphPad Software, La Jolla, CA, USA).
# [5] = tested on: caspases 3/7, 8, and 9 in MCF-10A cells; assay: Caspase-Glo assay, MCF-10A; assay type: cell-based, human; details: IC50 values, 24 h; vs vehicle
# Protocol: The activities of caspases 3/7, 8, and 9 were measured by using the Caspase-Glo Assay according to the manufacturer’s guidelines (Caspase-Glo 3/7, 8, and 9 Assay Systems, Promega Corporation, Madison, WI, USA), as already described. The luminescence was detected in a plate-reading luminometer (Synergy H1 Hybrid Reader, BioTek) for 30 min to 3 h (λex/em = 490/570 nm). Results were reported as signal-to-noise ratio (background was determined from the culture medium without cells). The experiments were performed in triplicate.
# H: Figure S4. Caspases activity in MCF-10A cells
# Caspase 3/7 Caspase 8 Caspase 9
# Figure S4. Caspases activity.
# between th e vehicl e-treated cells, us ed as control, and the cells treated with compounds 1 and 6. Both
# The data are representative of […]
# β-actin in MCF-10A cells = assay: Actin immunofluorescence, MCF-10A; assay type: cell-based, human
# Protocol: (§4) The MitoTracker Deep Red FM probe (MitoTracker Mitochondrion-Selective Probes, Invitrogen European Headquarters, Paisley, PA4 9RF, UK) was used for mitochondrial staining, as previously described. For immunofluorescence analysis, the cells were seeded and further processed, as reported by Iacopetta et al.. The primary antibodies used were: rabbit anti-β-Actin and vimentin (Santa Cruz Biotechnology, Dallas, TX, USA), mouse anti cytochrome c and NF-κB p65 (Abcam, Cambridge, UK), diluted 1:100 in bovine serum albumin (BSA) 2% overnight at 4 °C. The secondary antibodies were: Alexa Fluor® 488 conjugate goat-anti-rabbit and Alexa Fluor® 568 conjugate goat-anti-mouse (Thermo Fisher Scientific, MA, USA), diluted 1:500 and incubated for 2h at 37 °C. DAPI 0.2 μg/mL (Sigma Aldrich, Milan, Italy) was used for nuclei staining. […] All the images were acquired and processed using the LAS-X software.
# E: Figure S1. Actin immunofluorescence studies in MCF-10A cells […]
# Figure S1. Actin immunofluorescence studies. M CF-10A cells were treat ed with compounds 1 and […]
# treatment, the cells were methanol fixed, incubated with primary and secondary antibodies, stained with DAPI and observed and imaged under the inverted fluorescence microscope at 20x […]
# A: nuclear stain with DAPI (λex/λem = 350/460 nm); Panels B: β-actin ([…]); Panels C: show a merge. R epresentative fields are shown.
# [6] = tested on: cytochrome c in MCF-10A cells; assay: Mitochondria staining and cytochrome c detection, MCF-10A; assay type: cell-based, human; details: IC50 value, 24 h
# Protocol: as §4
# I: Figure S5. Mitochondria staining and cytochrome c detection in MCF-10A cells
# Figure S5. Mitochondria staining and cytochrome c detection in MCF-10A cells. Figure S5.
# Mitochondria staining and cytochrome c detection in MCF-10A cells. In th e CTRL cells as well as
# Panels A, DAP I λex/em= 350/460 nm; Panels B, Alexa Fluor CF 488 λex/em=
# 490/515 nm; Panels C, MitoTracker Deep Red FM probe λex/em= 644/665 nm. Panels D: overlay
# channels. Images were acquired at 40x magnification and representative fields are shown.
# MDA-MB-231 cells = assay: MTT assay, MDA-MB-231; assay type: cell-based, human; details: MTT, 72 h; mean ± SD; read-out: IC50 MDA-MB-231
# Protocol: as §2, §3
# MCF-10A cells [7] = assay: TUNEL assay, MCF-10A; details: IC50, 24 h
# Hek-293 cells = assay: MTT assay, normal Hek-293; assay type: cell-based, human; details: MTT, 72 h; normal cells; mean ± SD; read-out: IC50 Hek-293
# Protocol: as §1, §3
structure (smiles),measurement,setting,value
Cn1ccn(CC([O-])c2ccccc2)[c]1=[Au+]=[c]1n(C)ccn1CC([O-])c1ccccc1.[Cl-].[Na+].[Na+] (centres unmarked) [Compound 1],effect on already polymerized actin (in words),[1],did not produce a significant decrease
same,inhibition of hTopo I supercoil relaxing activity,[2],totally inhibit
same,inhibition of hTopo II decatenation activity,[3],totally inhibited
same,IC50,MCF-10A cells [4],> 200 µM
same,cytotoxicity against the normal MCF-10A cells (in words),MCF-10A cells [4]; up to the concentration of 200 μM,complete lack of cytotoxicity; also recorded: completely lack of cytotoxicity
same,IC50,SkBr3 cells,83 ± 1 µM
same,"caspases 3/7, 8 and 9 activity levels, MCF-10A",[5],No differences
same,actin organization in MCF-10A cells,"β-actin in MCF-10A cells; 24 h, compounds at their IC50 value, LA 0.1 μM",normal
same,"cytochrome c localization, MCF-10A",[6],within mitochondria
same,IC50,MDA-MB-231 cells,15.8 ± 0.7 µM
same,"apoptosis (TUNEL), MCF-10A",MCF-10A cells [7],No apoptosis was detected
same,IC50,Hek-293 cells,> 200 µM
"CC(=O)[O-].Cn1c(Cl)c(Cl)n(CC(O)c2ccccc2)[c]1=[Au+]=[c]1n(C)c(Cl)c(Cl)n1CC(O)c1ccccc1 (centres unmarked) [Compound 6, Bis [4,5-dichloro-(N-methyl, N’(2-hydroxy-2-phenyl-ethyl)imidazole-2-ylidine]gold(I)] acetate]",effect on already polymerized actin (in words),[1],did not produce a significant decrease
same,inhibition of hTopo I supercoil relaxing activity,[2],totally inhibit
same,inhibition of hTopo II decatenation activity,[3],totally inhibited
same,IC50,MCF-10A cells [4],24.4 ± 0.9 µM
same,IC50,SkBr3 cells,2.3 ± 0.9 µM
same,"caspases 3/7, 8 and 9 activity levels, MCF-10A",[5],No differences
same,actin organization in MCF-10A cells,β-actin in MCF-10A cells,normal
same,"cytochrome c localization, MCF-10A",[6],within mitochondria
same,IC50,MDA-MB-231 cells,16.8 ± 1.2 µM
same,"apoptosis (TUNEL), MCF-10A",MCF-10A cells [7],No apoptosis was detected
same,IC50,Hek-293 cells,32.5 ± 1.1 µM
